Tests used:
[1] = tested on: rats of the Sprague Dawley breed; experiment: Acute dermal toxicity; type: in vivo
Description: (§1) This study was carried out on white rabbits of the New Zealand breed and on rats of the Sprague Dawley breed.
(§2) The rats were subjected on the one hand to a study for determination of the acute dermal toxicity and on the other hand to a study for determination of the acute oral toxicity.
(§3) observing the OECD Guidelines no. 404 and 405 of 24 Feb. 1987 to the extent that they are studies carried out on white rabbits, and OECD Guidelines no. 401 and 402 (1987) as well as EEC Directive B-I 92/69 (1992) to the extent that they are studies carried out on Sprague Dawley rats.

[2] = tested on: intrinsic coagulation system; experiment: APTT (activated partial thromboplastin time) test; type: biochemical; conditions: relative to heparin
Description: (§4) For this, the anticoagulant activity of the laminarin sulphate PS3 obtained in Example 1 was determined as a function of its concentration in comparison with that of heparin in the conventional coagulation, APTT or “activated partial thromboplastin time” tests, the prothombin time test, the so-called “HEPTEST” test and the thrombin time test. The APTT reflects an interaction with the intrinsic coagulation system, while the prothrombin time reflects an interaction with the extrinsic coagulation; the so-called “HEPTEST” test is the conventional test for measurement of the inhibitory activity of heparin with respect to factor Xa, and the thrombin time corresponds to the last stage of coagulation, that is to say the formation of fibrins induced by thrombin.

[3] = tested on: formation of fibrins induced by thrombin; experiment: Thrombin time test; type: biochemical; conditions: relative to heparin
Description: as §4

HSV-2 = experiment: Action on the viral adsorption (treatments A, B, C); type: cell-based, herpes simplex virus 2; conditions: treatment C (present during and after infection), 72 hours
Description: (§5) To determine whether PS3 has an effect on the viral adsorption, the procedure was as follows.
(§6) Vero cells were seeded at a cell density of 3.5·10^4 cells/well of a 96-well microtitre plate in 100 μl of MEM medium containing 8% FCS 24 hours before the test. The viral suspensions of HSV-1, HSV-1R, HSV-2 and HSV-2R, defined by an MOI of 0.01 ID50/cell for a cell concentration of 350,000 cells/ml, were tested.
(§7) On the day of the test, the cells were subjected to three different treatments designated A, B and C.
(§8) According to treatment A, cells treated with 50 μl of PS3 or comparison product (acyclovir) of a given concentration were infected with 50 μl of one of the viral suspensions identified above for one hour at 4° C.
(§9) The infected cells were then washed with 100 μl of saline buffer in order to remove the PS3 or the reference product as well as the viral particles which had not been adsorbed by the cells.
(§10) After having filled each well with sufficient MEM medium containing 8% FCS to arrive at a volume of 200 μl, the cells were then placed in an oven at 37° C. for 72 hours. […]
(§11) For these 3 treatments, the inhibitory effect of PS3 and of the reference product (expressed in EC50) on the adsorption of the four abovementioned viral strains after 72 hours was evaluated by measurement of the EC50 values in accordance with the method described in Example 3.

HSV-2R = experiment: as above; type: cell-based, herpes simplex virus 2; conditions: treatment C (present during and after infection), 72 hours
Description: as §5, §6, §7, §8, §9, §10, §11

[4] = tested on: white rabbits of the New Zealand breed; experiment: Ocular irritation test; type: in vivo
Description: as §1
(§12) The white rabbits were subjected on the one hand to the ocular irritation test and on the other hand to the primary skin irritation test.
as §3

factor Xa [5] = experiment: HEPTEST coagulation test; type: biochemical; conditions: in contrast to heparin
Description: For this, the anticoagulant activity of the laminarin sulphate PS3 obtained in Example 1 was determined as a function of its concentration in comparison with that of heparin in the conventional coagulation, APTT or “activated partial thromboplastin time” tests, the prothombin time test, the so-called “HEPTEST” test and the thrombin time test. The APTT reflects an interaction with the intrinsic coagulation system, while the prothrombin time reflects an interaction with the extrinsic coagulation; the so-called “HEPTEST” test is the conventional test for measurement of the inhibitory activity of heparin with respect to factor Xa, and the thrombin time corresponds to the last stage of coagulation, that is to say the formation of fibrins induced by thrombin. […] The specific activity (IU/mg) in the APTT represents 30% of the heparin activity, and in the case of the thrombin time 60%. To prevent coagulation totally, it was necessary to apply a concentration 4 times higher in the case of the APTT and a concentration 20 times higher in the case of the thrombin time.

HSV-1R = experiment: Action on the viral adsorption (treatments A, B, C); type: cell-based, herpes simplex virus 1; conditions: treatment C (present during and after infection), 72 hours
Description: as §5, §6, §7, §8, §9, §10, §11

HSV-1 = experiment: as above; type: cell-based, herpes simplex virus 1; conditions: treatment C (present during and after infection), 72 hours
Description: as §5, §6, §7, §8, §9, §10, §11

[6] = tested on: rats of the Sprague Dawley breed; experiment: Acute oral toxicity; type: in vivo
Description: as §1, §2, §3

[7] = tested on: white rabbits of the New Zealand breed; experiment: Primary skin irritation test; type: in vivo
Description: as §1, §12, §3

thrombin = experiment: Specific antithrombin test using chromogenic substrates; type: biochemical
Text: (§13) The effect in the case of the thrombin time can be considered as being due to an inhibition of thrombin dependent on heparin cofactor II. On the basis of on the one hand the lower specific activity and on the other hand the profile dependent on the concentration and also on the other hand other investigations relating to the action mechanism, it is possible to consider that in the case of the laminarin sulphate PS3, the risk of bleeding is considerably lower than in the case of heparin.

factor Xa [8] = experiment: Specific anti-factor Xa test using chromogenic substrates; type: biochemical
Text: as §13

extrinsic coagulation = experiment: Prothrombin time test; type: biochemical
Description: as §4

sulphated laminarin [PS3]
dermal 50% lethal dose [1]: greater than 2 g/kg of body weight
Concentration needed to prevent coagulation totally, APTT [2]: 4 times higher
Specific activity (IU/mg) in the APTT as share of the heparin activity [2]: 30%
Concentration needed to prevent coagulation totally, thrombin time [3]: 20 times higher
Specific activity (IU/mg) in the thrombin time as share of the heparin activity [3]: 60%
EC50 (HSV-2): 0.24 µg/mL
EC50 (HSV-2R): 0.30 µg/mL
Ocular irritation [4]: slightly irritating action
Activity in the HEPTEST test compared with heparin (factor Xa [5]): more than 20 times weaker
EC50 (HSV-1R): 5.54 µg/mL
EC50 (HSV-1): 3.84 µg/mL
acute toxicity by the oral route [6]: greater than 2 g/kg of body weight
Primary skin irritation [7]: non-irritating action
antithrombin activity (thrombin): nor an antithrombin activity
anti-factor Xa activity dependent on the antithrombin (factor Xa [8]): neither a significant anti-factor Xa activity dependent on the antithrombin
Anticoagulant effect on the prothrombin time (extrinsic coagulation): no pronounced anticoagulant effect

— patent publication US8288363B2, “Medicaments for anti-herpes virus treatments” (ASE & BIO, priority 2006, dated 2012)
